In brackets after ≈: the same amount, converted by molar mass.
Assays:
[1] = tested on: radicles of Orobanche crenata; parameters: method as in PMID 24044614; conditions: cited from earlier work
[2] = tested on: Orobanche cumana radicles; assay: Orobanche cumana radicle growth bioassay; assay type: in vivo; conditions: for inhibition at 100 µg/mL: 168 h; for inhibition at 100 µg/mL / inhibition of radicle growth: 100 μg/mL, 7 days, relative to control (GR24 + 2% DMSO), ± standard error
Description: Allelopathic effects of each B. trixago extracts and isolated compounds were tested on Orobanche radicle growth according to previous protocols. Seeds of Orobanche cumana, were surface-sterilized by immersion in 0.5% (w/v) NaOCl and 0.02% (v/v) Tween 20, for 5 min, rinsed thoroughly with sterile distilled water, and dried in a laminar airflow cabinet. Approximately 100 seeds of Orobanche seeds were placed separately on 9 mm-diameter glass fiber filter paper disks (GFFP) (Whatman International Ltd., Maidstone, UK), moistened with 50 μL of sterile distilled water, and placed in incubators at 23 °C for 10 days inside Parafilm-sealed Petri dishes, to allow seed conditioning. Then, GFFP disks containing conditioned Orobanche seeds were transferred onto a sterile sheet of filter paper and transferred to new 9 cm sterile Petri dishes. Stock solutions of each B. trixago extract and isolated metabolite were respectively dissolved in dimethyl sulfoxide and subsequently individually diluted to 100 μg/mL using an aqueous solution of GR24 (10^−6 M). The final concentration of dimethyl sulfoxide was 2% in all test treatments. For each assay, 50 μL aliquots of each sample were applied to GFFP discs containing conditioned Orobanche seeds. Triplicate aliquots of a treatment only containing GR24 and 2% dimethyl sulfoxide was used as a control. Treated seeds were incubated in the dark at 23 °C for 7 days and radicle growth was determined for each GFFP disc, using a stereoscopic microscope (Leica S9i, Leica Microsystems GmbH, Wetzlar, Germany). For the characteristic of radicle growth, the value used was the average of 10 randomly selected radicles per GFFP disc. The percentage of radicle growth inhibition of each treatment was then calculated relative to the average radicle growth of control treatment.

[3] = parameters: method as in doi:10.1076/phbi.37.4.318.5808, PMID 12036030; conditions: cited from earlier work
[4] = parameters: method as in doi:10.1076/phbi.37.4.318.5808; conditions: cited from earlier work
Aliivibrio fischeri = assay: Bioluminescence inhibition test (ISO 11348-3:2007, Microtox); assay type: in vivo; conditions: 0.5 h, 30 min
Description: (§1) The ecotoxicological tests were carried out on green freshwater algae Raphidocelis subcapitata, macrophyte Lepidium sativum, water flea Daphnia magna, nematode Caenorhabditis elegans and bacterium Aliivibrio fischeri to expand the range of endpoints due to differences in species sensitivity and exposure. Testing on R. subcapitata was performed using as endpoint the algal growth inhibition after 72 h of exposure and was based on ISO 8692:2012 [65]. The algal density was determined by spectrophotometric analysis (DR5000, Hach Lange GbH, Weinheim, Germany). Ecotoxicity tests were carried out in triplicate, at 25 ± 1 °C with constant illumination of 6700 lux. Testing on L. sativum was performed according to ISO 11269-1:2012 [66] considering germination and root elongation as endpoint after 72 h. Seeds (n = 10) were exposed in triplicate in Petri dishes and incubated at 25 ± 1 °C in darkness. Daphnia magna test was conducted according to UNI EN ISO 6341:2013 [67] and the endpoint evaluated was the immobilization after 24 h. Daphnids (less than 24 h old) were exposed to the samples at 20 ± 2 °C, in darkness without feeding. Testing on C. elegans was carried out, with a few modifications, according to the ASTM E2172-01 Standard Method (2014) using the 24 h mortality endpoint. The test was performed using age-synchronous adult nematodes exposed at 20 °C to compound 4, without feeding. […]

Caenorhabditis elegans = assay: C. elegans 24 h mortality test (ASTM E2172-01); assay type: in vivo
Description: as §1

Lepidium sativum = assay: whole plant or invertebrate; assay type: in vivo; conditions: 72 h, read-out: EC50 (germination and root elongation)
Description: as §1

Daphnia magna = Daphnia magna immobilization test (UNI EN ISO 6341:2013); assay type: in vivo; conditions: 24 h
Description: as §1

Raphidocelis subcapitata = assay: Algal growth inhibition test (ISO 8692:2012); assay type: in vivo; conditions: 72 h
Description: as §1

Wistar rats = tested on: Wistar rats; parameters: method as in PMID 23195582; conditions: cited from earlier work

Row | SMILES | inhibition at 100 µg/mL [2] [%] | DPPH scavenging activity [3] | inhibition of radicle growth [2] | antioxidant activity in β-carotene bleaching assay [4] | further results
1 | O=C(O)c1ccccc1 [Compound 1, benzoic acid] |  |  |  |  | inhibitory activity on radicles [1]: moderate inhibitory activity
2 | OCC1=CC[C@@H]2C=CO[C@@H](O[C@@H]3O[C@H](CO)[C@@H](O)[C@H](O)[C@H]3O)[C@H]12 [Compound 2, bartsioside] | 61.1 ± 1.5 |  |  |  | 
3 | OCC1=C[C@@H](O)[C@@H]2C=CO[C@@H](O[C@@H]3O[C@H](CO)[C@@H](O)[C@H](O)[C@H]3O)[C@H]12 [Compound 3, aucubin] |  | no DPPH scavenging activity | no significant inhibitory activity | inactive | 
4 | O=C(OCC1=C[C@@H](O)[C@@H]2C=CO[C@@H](O[C@@H]3O[C@H](CO)[C@@H](O)[C@H](O)[C@H]3O)[C@H]12)c1ccccc1 [Compound 4, melampyroside] | 72.6 | no DPPH scavenging activity |  | pro-oxidant | phytotoxicity observed on radicles ([2]; 100 µg/mL): some degree of phytotoxicity observed as darkening; EC50 (Aliivibrio fischeri): 76 µg/mL (≈ 169 µM); EC50 (Caenorhabditis elegans): 57.2 µg/mL (≈ 127 µM); EC50 (Lepidium sativum): ≥ 100 µg/mL; EC50 (Daphnia magna): 33.3 µg/mL (≈ 73.8 µM); EC50 (Raphidocelis subcapitata): ≥ 100 µg/mL; cardioactivity (Wistar rats): cardioactive
5 | C=C1[C@H]2[C@H](O[C@@H]3O[C@H](CO)[C@@H](O)[C@H](O)[C@H]3O)OC=C(C(=O)OC)[C@H]2C[C@@H]1O [Compound 5, gardoside methyl ester] |  |  | no significant inhibitory activity |  | 
6 | COC(=O)C1=CO[C@@H](O[C@@H]2O[C@H](CO)[C@@H](O)[C@H](O)[C@H]2O)[C@H]2[C@@H]1CC[C@]2(C)O [Compound 6, mussaenoside] | 65.9 ± 2.9 | no DPPH scavenging activity |  | antioxidant | 

Reference: paper PMC9414233, “Iridoid Glycosides Isolated from Bellardia trixago Identified as Inhibitors of Orobanche cumana Radicle Growth” (Toxins, 2022)
